The test system of data set [1] is aged mice. The data set is described as follows: Motor neuron apoptosis: cleaved caspase-3 in ChAT+ neurons of the lumbar spinal cord of aged mice. Type of data set: in vivo, mouse. The note with it: ChAT+ neurons in ventral horn of lumbar spinal cord. The protocol:
(§1) Mice were treated for 1 month once a day intraperitoneally with 5 mg/kg of SW033291 (SW) or vehicle (10% ethanol, 5% Cremophor EL, and 85% D5W (5% (wt/v) dextrose in water, Tables 3 and 4)) as previously described (2). Vehicle and SW treatments were performed in seven independent experiments for aging studies that included young and aged vehicle- and SW-treated groups. Mice were randomized based on their body weight into vehicle-treated control and SW-treated experimental groups prior to the start of injections. A full-body necropsy was performed on all mice at the experimental endpoint and mice that developed tumors were excluded from the study.
Spinal cords were harvested as previously described using hydraulic extrusion of the entire intact spinal cord. Briefly, mice were euthanized with carbon dioxide and decapitated using scissors caudally to the brain stem. The spinal columns were severed just caudal to the sacral spinal cord. A blunt 25-gauge syringe containing ice-cold PBS was inserted into the caudal end of the spinal cord to hydraulicly extrude the entire cord in a petri0dish with ice-cold PBS. The lumbar region was identified under a stereomicroscope, dissected with a sharp blade, and fixed overnight at 4 C in 4% PFA in phosphate buffer. Fixed lumbar spinal cords were embedded in O.C.T. and were frozen in liquid-nitrogen-cooled isopentane. […]

The subject of data set [2] is aged mice. The data set is described as follows: NMJ morphology in EDL muscles of aged mice (whole-mount staining, confocal microscopy). Type of data set: in vivo, mouse. The protocol:
as §1
Extensor digitorum longus (EDL) and soleus muscles were dissected and fixed in 4% PFA in PBS for 30 minutes at room temperature. Muscles were washed in PBS extensively and stored in PBS with 0.01% sodium azide (Sigma. S2002) at 4 C until processed. For whole-mount staining, EDLs were separated using the distal tendon into 4 pieces to make thinner sheets of muscles for staining. The proximal and distal tendons of either soleus or EDL pieces were removed to allow for teasing thin bundles of muscle fibers using fine forceps under a stereomicroscope. Care was given in handling tissues to avoid touching the end plate band with forceps tips. Next, myofiber bundles were incubated in PBS-T (0.3% Triton X-100 in PBS) for 1 hour and were blocked in blocking solution (5% goat serum and 0.3% Triton X-100 in PBS) supplemented with 1:50 dilution of goat anti-mouse IgG (Jackson ImmunoResearch, 115-007-003) and IgM (Jackson ImmunoResearch, 115-007-020) for 1 hour at room temperature. Tissues were then incubated with a primary antibody mix against neurofilament and synaptic vesicle (2H3 and SV, DSHB) at 5 μg/ml for a minimum of 24 hours at 4 C with gentle shaking. Tissues were then rinsed with PBS-T and incubated with a secondary antibody mix (goat anti-mouse IgG1-Cy™3, Bungarotoxin-AF™647, and Hoechst 33342) diluted in blocking solution overnight at 4° C. with gentle shaking. Tissues were washed extensively with PBS and mounted in Fluoromount-G™ mounting medium (Southern Biotech, 0100-01) and left overnight to equilibrate prior to confocal microscopy.
Confocal images were acquired on a Marianas spinning disk confocal (SDC) microscopy with Intelligent Imaging Innovations software using a 20×/NA 0.75 or an oil immersion 40×/NA 0.9 objective to capture multiple focal planes at a step size of 1 μm. Images acquired using the 20× objective were analyzed to score denervation, axonal swelling, and fragmentation of AChRs. Images acquired with the oil immersion 40× objective were analyzed to quantity NMJ-associated endolysosomal vesicles stained with α-bungarotoxin-AF647. Maximum intensity projection images were created from confocal slices using NIH ImageJ software. Data acquisition and NMJ scoring were performed by two researchers blinded to treatment conditions.

Data set [3] deals with aged mice. The data set is described as follows: Electron microscopy of motor neuron-associated mitochondria in EDL axons of aged mice. The data set is classed as in vivo, mouse. The note with it: one month of treatment, listed as SW. The protocol:
as §1
Extensor digitorum longus (EDL) muscles were dissected and pinned by proximal and distal tendons to the bottom of a petri-dish coated with silicone rubber. Tissues fixed in 2% Glutaraldehyde (Electron Microscopy Sciences, 16000) and 4% paraformaldehyde (Electron Microscopy Sciences, 15700) in 0.1M sodium cacodylate (Electron Microscopy Sciences, 12300) pH 7.4 for 24 hours. Tissues were then transferred from petri-dishes to microcentrifuge tubes with 1% Osmium tetroxide (Electron Microscopy Sciences, 19100) and were kept at room temperature for 1 hour with gentle rotation. […] Images were quantified by an individual blinded to experimental conditions in ImageJ.

The subject of data set [4] is aged mice. The data set is described as follows: Aged mice treated systemically with SW033291 for one month: muscle PGE2 levels, muscle mass and force. Type of data set: in vivo, mouse. The note with it: systemic treatment for one month. From the text: The prostaglandin E2 catabolizing enzyme, 15-hydroxyprostaglandin dehydrogenase (15-PGDH), is a pivotal regulator of muscle aging and that its inhibition leads to a marked increase in muscle mass and strength in aged mice^1. 15-PGDH is a nicotinamide adenine dinucleotide (NAD+) dependent enzyme that increases with aging in muscle and catabolizes PGE2. FIGS. 1A-1B show increased 15-PGDH activity along with PGE2 levels, and these are reduced in aged mouse muscle. […] Strikingly, overexpression of 15-PGDH in young mouse muscles leads to loss of muscle mass and strength after just one month^1. […]
Plantar flexion peak isometric torque (N·mm) was measured in mice as described previously (2, 42, 43). […] Data were analyzed using Aurora Scientific Dynamic Muscle Analysis Software Suite. Force was measured longitudinally in mice undergoing unilateral sciatic nerve crush injury on days 3, 7, and 14 post-injury. Peak tetanic force generated by contralateral uninjured legs was measured in all experimental mice at all time points.
Prostaglandins, PGE2, PGD2, and PGF2a, and PGE2 metabolites, 15-keto PGE2 and 13,14-dihydro-15-keto PGE2 (PGEM), were measured as described previously (2). Briefly, tissues were snap frozen in liquid nitrogen upon dissection and were kept for no more than 2 weeks in −80° C. freezer before processing for prostaglandin quantification using LC-MS/MS. […]

Data set [5] has as its system mice undergoing unilateral sciatic nerve crush. The data set is described as follows: Sciatic nerve crush: NMJ denervation in ipsilateral EDL muscles (immunofluorescence). Type of data set: in vivo, mouse. As to conditions: 14 dpi, daily intraperitoneal treatment, compared to vehicle-treated controls. The protocol:
(§2) Nerve injury was induced as described below. Mice were treated with SW or vehicle as control intraperitoneally once daily for 14 days post-injury as described above.
The sciatic nerve crush surgery was adopted from the protocol described previously by Bauder and Ferguson (41). The crush surgery was performed as described above with the following modifications. After locating the sciatic nerve, the nerve was mobilized gently with sharp sticks for easy access with hemostatic forceps (Fine Science Tools, 13020-12). Next, the nerve was gently placed on the bottom jaw of the forceps and was crushed for 15 seconds at 3 clicks of the forceps (first location of the locking handle). The incision was closed using 7 mm autoclaved reflex clips (World Precision Instruments, 500344; Applier: 500345). Mice were monitored for recovery from anesthesia and then returned to their home cages. […]
Confocal images were acquired on a Marianas spinning disk confocal (SDC) microscopy with Intelligent Imaging Innovations software using a 20×/NA 0.75 or an oil immersion 40×/NA 0.9 objective to capture multiple focal planes at a step size of 1 μm. Images acquired using the 20× objective were analyzed to score denervation, axonal swelling, and fragmentation of AChRs. Images acquired with the oil immersion 40× objective were analyzed to quantity NMJ-associated endolysosomal vesicles stained with α-bungarotoxin-AF647. […]

The test system is the same in data set [6]. The data set is described as follows: Sciatic nerve crush: plantar flexion tetanic force by nerve stimulation. Type of data set: in vivo, mouse. How it is done: as §2
(§3) The sciatic nerve crush surgery was adopted from the protocol described previously by Bauder and Ferguson (41). The crush surgery was performed as described above with the following modifications. After locating the sciatic nerve, the nerve was mobilized gently with sharp sticks for easy access with hemostatic forceps (Fine Science Tools, 13020-12). Next, the nerve was gently placed on the bottom jaw of the forceps and was crushed for 15 seconds at 3 clicks of the forceps (first location of the locking handle). The incision was closed using 7 mm autoclaved reflex clips (World Precision Instruments, 500344; Applier: 500345). Mice were monitored for recovery from anesthesia and then returned to their home cages.
Plantar flexion peak isometric torque (N·mm) was measured in mice as described previously (2, 42, 43). Briefly, mice were anesthetized with 3% isoflurane mixed with oxygen and legs were shaved from ankle to hip to allow for reproducible access to the tibial nerve. The foot was taped to a footplate attached to a servomotor (Aurora Scientific, 300C-LR) and the knee joint was secured to a fixed steel post. Contractions were elicited by percutaneous electrical stimulation of the tibial nerve by inserting two Pt—Ir electrode needles (Aurora Scientific) posterior to the knee joint. The peak isometric torque was achieved by injecting 0.4 mA current to the tibial nerve at a frequency of 150 Hz and 0.1 ms square wave pulse. Three tetanic measurements were performed on each muscle, with 1 minute recovery between each measurement, and chose the highest value. Force measurement acquisition was blinded and the researcher performing the force measurements was unaware of treatment conditions. Data were analyzed using Aurora Scientific Dynamic Muscle Analysis Software Suite. Force was measured longitudinally in mice undergoing unilateral sciatic nerve crush injury on days 3, 7, and 14 post-injury. Peak tetanic force generated by contralateral uninjured legs was measured in all experimental mice at all time points.

Data set [7] addresses 15-PGDH (Mus musculus, UniProt Q8VCC1). As to conditions: in vivo; cited from earlier work.
Data set [8] deals with mice undergoing unilateral sciatic nerve crush. The data set is described as follows: Sciatic nerve crush: body weight and gastrocnemius/soleus muscle weight. Type of data set: in vivo, mouse. How it is done:
as §2, §3

[9] abbreviates: aged mice, one month of intraperitoneal administration.
Where [10] appears, read: geriatric mice (>26 months), one month once daily i.p., EDL.

“Also recorded” adds a separate entry of the source.

15-PGDH, sequence (Q8VCC1 whole entry): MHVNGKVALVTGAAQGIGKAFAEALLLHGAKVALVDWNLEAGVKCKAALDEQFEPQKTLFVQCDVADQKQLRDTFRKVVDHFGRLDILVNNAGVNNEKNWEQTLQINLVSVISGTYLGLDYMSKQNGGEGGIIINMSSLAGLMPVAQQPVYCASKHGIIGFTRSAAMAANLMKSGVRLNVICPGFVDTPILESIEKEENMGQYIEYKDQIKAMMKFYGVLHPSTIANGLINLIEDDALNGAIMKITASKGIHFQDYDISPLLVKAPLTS

Consider `CCCC[S+]([O-])c1sc2nc(-c3cccs3)cc(-c3ccccc3)c2c1N` (centres unmarked) [SW033291, 2-(butylsulfinyl)-4-phenyl-6-(thiophen-2-yl)thieno[2,3-b]pyridin-3-amine], for which, in data set [1], the “activated caspase-3 in aged lumbar motor neurons (apoptosis)” value was “lower levels”. Besides, in data set [2] (setting [9]), the “morphology of the AChRs” value was “improves, enhances, and/or rejuvenates the intact morphology of the AChRs” and the “number of AChR rich endo/lysosomal vesicles” value is given as “striking reduction”. The “number of AChR rich endo/lysosomal vesicles” value in data set [2] (aged mice, one month of intraperitoneal administration, listed as SW) was “reduces”. Further, in data set [2] (setting [10]), the “aged NMJ morphology” value was “improved, enhanced, and/or rejuvenated to branched and pretzel-like structures found in young EDLs”; the “incidence of AChR fragmentation” value was “significantly reduced”; the “incidence of motor neuron axonal swelling” value is “significantly reduced”. Moreover, in data set [2] (geriatric mice (>26 months), one month once daily i.p., mean±S.E.M.), the “rate of denervation in aged EDLs” value came out at 12.4±2.9. In addition, the “mitochondrial morphology in motor neurons (distal axons / heavily myelinated axons of EDL)” value in data set [3] is “improvement, enhancement, and/or rejuvenation of mitochondrial morphology; also recorded: improved, enhanced, and/or rejuvenated to compact circular mitochondria morphology resembling that seen in young”. Further, in data set [4], the “increase in muscle mass and force” value was 15-20%; the “muscle PGE2 levels” value is “to the physiological levels measured in young mice”. Besides, in data set [5], the “denervation rates in EDLs ipsilateral to the nerve crush” value is “significantly reduced”. Also, the “tetanic plantar flexor force in the injured leg, difference between vehicle and SW” value in data set [6] (3 dpi until 7 dpi) is reported as “no differences between the experimental groups”. The “plantar flexion force of the contralateral (uninjured) legs, difference between vehicle and SW” value in data set [6] (contralateral control legs, listed as SW) was “no significant differences”. Also, in data set [6] (mean±S.D., compared to vehicle-treated control mice, 14 days post nerve crush), the “increase in specific force (force normalized to gastrocnemius and soleus weight)” value is reported as 52±10%. Also, the “increase in plantar flexion force generation in injured legs” value in data set [6] (mean±S.D., daily intraperitoneal treatment after nerve crush) was 69±8%. The “catabolic regulators of muscle atrophy such as atrogenes, ubiquitin ligases MuRF1 (Trim63) and Fbxo32, and TGF-beta signaling” value in data set [7] is listed as “reduction”. The “muscle mass in injured legs” value in data set [8] (14 dpi, gastrocnemius and soleus) is listed as “significant increase”. Also, the “muscle weight of the contralateral control legs, difference between vehicle and SW treatment” value in data set [8] (contralateral control legs, 14 days post nerve crush) is recorded as “No differences”. Further, the “animals body weight, difference between vehicle and SW treatment” value in data set [8] (nerve crush model) is given as “No differences”.

The record behind these values is patent US20240423964A1, “METHODS AND COMPOSITIONS FOR IMPROVING NEUROMUSCULAR JUNCTION MORPHOLOGY AND FUNCTION” (The Board of Trustees of the Leland Stanford Junior …, priority 2021, published 2024).
